We go through 37 compounds from patent US20130040935A1, “CYCLIC KETO-ENOLS FOR THERAPY” (BAYER INTELLECTUAL PROPERTY GMBH, priority 2010, published 2013).

Molecules are shown by their SMILES.

What is called IC50 is the concentration that inhibits the measured activity by half.

In one experiment the target is human ACC2 (acetyl-coenzyme A carboxylase 2) (Homo sapiens, UniProt O00763). The experiment in a line: Human ACC2 enzyme assay, Assay B2 (ADP-Glo).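 Further: human ACC2 activity read as ADP product, detected by luciferase glow luminescence after residual ATP removal, enzyme near 2 ng/µl in linear range, detection steps at 22 °C.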
Sequence of human ACC2 (acetyl-coenzyme A carboxylase 2) (O00763 27-2458 limits assumed): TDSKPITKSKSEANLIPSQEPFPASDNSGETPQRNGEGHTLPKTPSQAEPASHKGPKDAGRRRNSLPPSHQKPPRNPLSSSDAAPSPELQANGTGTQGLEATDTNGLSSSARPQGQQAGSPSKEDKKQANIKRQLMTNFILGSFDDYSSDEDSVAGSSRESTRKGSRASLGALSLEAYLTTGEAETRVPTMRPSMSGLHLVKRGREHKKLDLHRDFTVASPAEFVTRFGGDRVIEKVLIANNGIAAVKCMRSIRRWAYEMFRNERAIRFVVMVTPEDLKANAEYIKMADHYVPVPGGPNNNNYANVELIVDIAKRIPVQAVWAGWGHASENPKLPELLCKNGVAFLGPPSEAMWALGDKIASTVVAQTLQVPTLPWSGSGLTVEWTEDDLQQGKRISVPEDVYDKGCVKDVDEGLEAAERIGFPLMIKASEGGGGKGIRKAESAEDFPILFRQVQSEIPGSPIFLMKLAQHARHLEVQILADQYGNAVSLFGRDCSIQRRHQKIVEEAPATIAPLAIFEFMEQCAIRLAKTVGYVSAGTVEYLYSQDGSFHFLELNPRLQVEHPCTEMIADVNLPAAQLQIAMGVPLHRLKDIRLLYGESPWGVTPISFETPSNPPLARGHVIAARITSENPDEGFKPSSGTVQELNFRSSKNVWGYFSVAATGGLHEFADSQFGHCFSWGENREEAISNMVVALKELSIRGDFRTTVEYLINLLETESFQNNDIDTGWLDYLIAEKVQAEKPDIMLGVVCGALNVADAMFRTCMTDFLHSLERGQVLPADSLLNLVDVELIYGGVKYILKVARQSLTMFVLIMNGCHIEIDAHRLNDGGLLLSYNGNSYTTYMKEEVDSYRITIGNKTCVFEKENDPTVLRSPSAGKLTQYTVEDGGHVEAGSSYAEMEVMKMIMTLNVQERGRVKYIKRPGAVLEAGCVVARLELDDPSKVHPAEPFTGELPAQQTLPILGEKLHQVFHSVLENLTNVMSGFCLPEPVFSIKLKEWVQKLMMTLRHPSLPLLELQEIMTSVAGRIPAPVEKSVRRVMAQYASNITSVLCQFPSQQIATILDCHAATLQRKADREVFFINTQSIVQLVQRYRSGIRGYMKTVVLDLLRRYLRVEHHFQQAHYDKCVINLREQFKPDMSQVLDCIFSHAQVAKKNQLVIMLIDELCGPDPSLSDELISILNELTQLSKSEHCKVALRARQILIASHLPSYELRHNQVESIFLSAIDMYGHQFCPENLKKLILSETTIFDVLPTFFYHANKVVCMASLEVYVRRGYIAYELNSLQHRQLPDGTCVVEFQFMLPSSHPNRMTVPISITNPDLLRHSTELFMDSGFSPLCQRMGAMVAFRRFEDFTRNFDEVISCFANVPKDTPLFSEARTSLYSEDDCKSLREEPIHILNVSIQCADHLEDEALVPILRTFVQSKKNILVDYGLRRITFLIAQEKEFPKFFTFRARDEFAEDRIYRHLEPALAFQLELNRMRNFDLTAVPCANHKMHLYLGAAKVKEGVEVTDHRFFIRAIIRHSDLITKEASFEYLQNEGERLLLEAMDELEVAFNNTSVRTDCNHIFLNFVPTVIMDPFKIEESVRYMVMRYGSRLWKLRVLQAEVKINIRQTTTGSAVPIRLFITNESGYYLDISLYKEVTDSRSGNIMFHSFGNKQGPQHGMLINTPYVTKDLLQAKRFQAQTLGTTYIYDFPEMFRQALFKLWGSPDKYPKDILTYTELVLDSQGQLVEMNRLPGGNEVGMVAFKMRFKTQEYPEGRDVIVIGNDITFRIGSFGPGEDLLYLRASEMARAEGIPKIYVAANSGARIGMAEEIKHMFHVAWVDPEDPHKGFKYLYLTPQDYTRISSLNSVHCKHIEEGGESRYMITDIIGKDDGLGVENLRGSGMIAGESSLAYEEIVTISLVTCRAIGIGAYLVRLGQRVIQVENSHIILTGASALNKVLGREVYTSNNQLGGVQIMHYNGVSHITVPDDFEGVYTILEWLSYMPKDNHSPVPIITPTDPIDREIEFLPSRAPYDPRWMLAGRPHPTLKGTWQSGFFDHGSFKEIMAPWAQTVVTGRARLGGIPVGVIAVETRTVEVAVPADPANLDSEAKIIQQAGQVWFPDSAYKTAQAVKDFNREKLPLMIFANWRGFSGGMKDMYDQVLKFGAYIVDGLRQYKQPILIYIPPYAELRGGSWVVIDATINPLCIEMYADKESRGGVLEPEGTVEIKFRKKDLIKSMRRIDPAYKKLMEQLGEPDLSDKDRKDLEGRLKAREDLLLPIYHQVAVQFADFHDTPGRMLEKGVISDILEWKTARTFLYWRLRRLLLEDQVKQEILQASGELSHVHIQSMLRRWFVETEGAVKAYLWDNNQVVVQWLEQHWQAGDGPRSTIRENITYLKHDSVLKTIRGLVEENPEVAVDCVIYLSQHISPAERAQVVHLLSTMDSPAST
Conditions: not given
For orientation: In ADP-Glo the light output rises with the ADP produced.
`Cc1ccc(-c2ccc(Cl)cc2)cc1C1=C(O)C2(Cc3ccccc3C2)NC1=O` [1-25, 4′-(4′-chloro-4-methylbiphenyl-3-yl)-3′-hydroxy-1,3-dihydrospiro[inden-2,2′-pyrrol]-5′(1′H)-one] had an IC50 of 3.78 µM. `COC1CCC2(CC1)NC(=O)C(c1cc(-c3ccc(Cl)c(Cl)c3)ccc1C)=C2O` (centres unmarked) [1-81, 3-(3′,4′-dichloro-4-methylbiphenyl-3-yl)-4-hydroxy-8-methoxy-1-azaspiro[4.5]dec-3-en-2-one]: the IC50 came out at 2.61 µM. The compound `CC1(C)COC2(CCC3(CC2)NC(=O)C(c2cc(-c4ccc(Cl)cc4)ccc2Cl)=C3O)OC1` [1-65, 3-(4,4′-dichlorobiphenyl-3-yl)-4-hydroxy-11,11-dimethyl-9,13-dioxa-1-azadispiro[4.2.5.2]pentadec-3-en-2-one] registered an IC50 of 14.7 µM. For the compound `CC[C@]1(OC)CC[C@@]2(CC1)NC(=O)C(c1c(C)ccc(-c3ccc(F)cc3)c1C)=C2O` [1-89, (5r,8r)-8-ethyl-3-(4′-fluoro-2,4-dimethylbiphenyl-3-yl)-4-hydroxy-8-methoxy-1-azaspiro[4.5]dec-3-en-2-one], the IC50 came out at 13.6 µM.

`Cc1ccc(-c2ccc(Cl)cc2)c(C)c1C1=C(O)C2(CCC3(CC2)OCCO3)NC1=O` [1-70, 11-(4′-chloro-2,4-dimethylbiphenyl-3-yl)-12-hydroxy-1,4-dioxa-9-azadispiro[4.2.4.2]tetradec-11-en-10-one] came in with an IC50 of 2.92 µM.

Another experiment deals with T1, human ACC1 (acetyl-coenzyme A carboxylase alpha transcript variant 1) (Homo sapiens, UniProt Q13085).
T1 construct: FLAG (C); made in house; host or cells: baculovirus-infected insect cells (Hi5)
In words: Human ACC1 enzyme assay, Assay B1 (ADP-Glo). The experiment is classed as biochemical.
Conditions: not given
The compound `CC[C@]1(OC)CC[C@@]2(CC1)NC(=O)C(c1c(C)ccc(-c3ccc(F)cc3)c1C)=C2O` [1-89, (5r,8r)-8-ethyl-3-(4′-fluoro-2,4-dimethylbiphenyl-3-yl)-4-hydroxy-8-methoxy-1-azaspiro[4.5]dec-3-en-2-one] yielded an IC50 of 2.07 µM. Regarding `Cc1ccc(-c2ccc(Cl)cc2)c(C)c1C1=C(O)C2(CCC3(CC2)OCCO3)NC1=O` [1-70, 11-(4′-chloro-2,4-dimethylbiphenyl-3-yl)-12-hydroxy-1,4-dioxa-9-azadispiro[4.2.4.2]tetradec-11-en-10-one], it took 0.286 µM to reach half-maximal inhibition (IC50).

In turn, `Cc1ccc(-c2ccc(Cl)cc2)cc1C1=C(O)C(C)(C2CCCCC2)OC1=O` (centres unmarked) [2-40, 3-(4′-chloro-4-methylbiphenyl-3-yl)-5-cyclohexyl-4-hydroxy-5-methylfuran-2(5H)-one] returned an IC50 of 1.51 µM. For the compound `CC1(C)OC(=O)C(c2cc(-c3ccc(Cl)cc3)ccc2Cl)=C(O)C1(C)C` [10-1, 3-(4,4′-dichlorobiphenyl-3-yl)-4-hydroxy-5,5,6,6-tetramethyl-5,6-dihydro-2H-pyran-2-one], 1.07 µM corresponded to half-maximal inhibition (IC50). The same measure, in the same setting: in the case of `Cc1ccc(-c2ccc(C)c(C3=C(O)C4(CCCOC4)NC3=O)c2)cc1` (centres unmarked) [1-14, 3-(4,4′-dimethylbiphenyl-3-yl)-4-hydroxy-7-oxa-1-azaspiro[4.5]dec-3-en-2-one] it was 3.07 µM; in that of `Cc1ccc(-c2ccc(F)cc2)cc1C1=C(O)C2(CCCCC2)OC1=O` [2-21, 3-(4′-fluoro-4-methylbiphenyl-3-yl)-4-hydroxy-1-oxaspiro[4.5]dec-3-en-2-one], 0.874 µM; in that of `Cc1ccc(-c2ccc(Cl)cc2)cc1C1=C(O)C2(CCCOC2)OC1=O` (centres unmarked) [2-9, 3-(4′-chloro-4-methylbiphenyl-3-yl)-4-hydroxy-1,7-dioxaspiro[4.5]dec-3-en-2-one], 2.22 µM.

The compound `Cc1ccc(-c2ccc(Cl)cc2)cc1C1=C(O)C(C)(C)C(C)(C)OC1=O` [10-2, 3-(4′-chloro-4-methylbiphenyl-3-yl)-4-hydroxy-5,5,6,6-tetramethyl-5,6-dihydro-2H-pyran-2-one] returned an IC50 of 0.76 µM. In the case of `O=C1C(c2cc(-c3ccc(F)cc3F)ccc2Cl)C(=O)N2CCOCCN12` [8-11, 8-(4-chloro-2′,4′-difluorobiphenyl-3-yl)tetrahydro-7H-pyrazolo[1,2-d][1,4,5]oxadiazepine-7,9(8H)-dione], the half-maximal inhibitory concentration (IC50) amounted to 1.36 µM. For the compound `Cc1ccc(-c2ccc(F)cc2)c(C)c1C1C(=O)N2CCCCN2C1=O` [8-1, 2-(4′-fluoro-2,4-dimethylbiphenyl-3-yl)tetrahydro-1H-pyrazolo[1,2-a]pyridazine-1,3(2H)-dione], the IC50 came to 3.56 µM. Take `CCOC1CCC2(CC1)NC(=O)C(c1cc(-c3cccc(Cl)c3)ccc1C)=C2O` (centres unmarked) [1-79, 3-(3′-chloro-4-methylbiphenyl-3-yl)-8-ethoxy-4-hydroxy-1-azaspiro[4.5]dec-3-en-2-one]: the IC50 amounted to 2.32 µM.

In the case of `Cc1ccc(-c2ccc(F)cc2)c(C)c1C1C(=O)N2CCOCCN2C1=O` [8-7, 8-(4′-fluoro-2,4-dimethylbiphenyl-3-yl)tetrahydro-7H-pyrazolo[1,2-d][1,4,5]oxadiazepine-7,9(8H)-dione], the IC50 was determined as 6.21 µM.

The compound `Cc1ccc(-c2ccc(Cl)cc2)cc1C1=C(O)C2(CCOCC2)OC1=O` [2-37, 3-(4′-chloro-4-methylbiphenyl-3-yl)-4-hydroxy-1,8-dioxaspiro[4.5]dec-3-en-2-one] showed an IC50 of 1.05 µM.

`Cc1ccc(-c2ccc(Cl)cc2)cc1C1C(=O)N2C3CCC(C3)N2C1=O` (centres unmarked) [8-16, 2-(4′-chloro-4-methylbiphenyl-3-yl)tetrahydro-1H-5,8-methanopyrazolo[1,2-a]pyridazine-1,3(2H)-dione]: the IC50 was 0.593 µM.

The compound `CC1OC2(CCC3(CC2)NC(=O)C(c2cc(-c4ccc(Cl)cc4)ccc2Cl)=C3O)OC1C` (centres unmarked) [1-71, 11-(4,4′-dichlorobiphenyl-3-yl)-12-hydroxy-2,3-dimethyl-1,4-dioxa-9-azadispiro[4.2.4.2]tetradec-11-en-10-one] yielded an IC50 of 0.912 µM. For `Cc1ccc(-c2ccc(Cl)cc2)cc1C1=C(O)CN(C)C1=O` [1-16, 3-(4′-chloro-4-methylbiphenyl-3-yl)-4-hydroxy-1-methyl-1,5-dihydro-2H-pyrrol-2-one], the IC50 worked out at 0.241 µM.

Still in this experiment, the particulars now being: Assay B1, ADP-Glo; read-out: ACC 1 (=B1) IC50.
On to `O=C1OC2(CCCCC2)C(O)=C1c1cc(-c2ccc(F)c(F)c2)ccc1Cl` [2-25, 3-(4-chloro-3′,4′-difluorobiphenyl-3-yl)-4-hydroxy-1-oxaspiro[4.5]dec-3-en-2-one], for which the IC50 was 1.2 µM.

With `Cc1ccc(-c2ccc(Cl)cc2)cc1C1=C(O)C(C(C)(C)C)OC1=O` (centres unmarked) [2-35, 5-tert-butyl-3-(4′-chloro-4-methylbiphenyl-3-yl)-4-hydroxyfuran-2(5H)-one], the IC50 was 1.19 µM.

With `Cc1ccc(-c2ccc(F)c(Cl)c2)cc1C1=C(O)C2(CCCC2)OC1=O` [2-23, 3-(3′-chloro-4′-fluoro-4-methylbiphenyl-3-yl)-4-hydroxy-1-oxaspiro[4.4]non-3-en-2-one], the IC50 was 2.09 µM. On the same count and under the same terms, in the case of `Cc1ccc(-c2ccc(F)c(F)c2)cc1C1=C(O)C2(CCCC2)OC1=O` [2-22, 3-(3′,4′-difluoro-4-methylbiphenyl-3-yl)-4-hydroxy-1-oxaspiro[4.4]non-3-en-2-one] it was 2.23 µM. For `Cc1ccc(-c2ccc(Cl)cc2)cc1C1=C(O)C2(CC2)OC1=O` [2-8, 6-(4′-chloro-4-methylbiphenyl-3-yl)-7-hydroxy-4-oxaspiro[2.4]hept-6-en-5-one], the IC50 was 1.99 µM.

The experiment is the same for the next values; noted with them: Assay B1; read-out: ACC 1 (=B1) IC50.
For the compound `Cc1ccc(-c2ccc(Cl)cc2)cc1C1=C(O)C2(Cc3ccccc3C2)NC1=O` [1-25, 4′-(4′-chloro-4-methylbiphenyl-3-yl)-3′-hydroxy-1,3-dihydrospiro[inden-2,2′-pyrrol]-5′(1′H)-one], the IC50 stood at 0.288 µM. For the compound `CC1(C)COC2(CCC3(CC2)NC(=O)C(c2cc(-c4ccc(Cl)cc4)ccc2Cl)=C3O)OC1` [1-65, 3-(4,4′-dichlorobiphenyl-3-yl)-4-hydroxy-11,11-dimethyl-9,13-dioxa-1-azadispiro[4.2.5.2]pentadec-3-en-2-one], the IC50 was 1.16 µM. Regarding `COCCC1(C)NC(=O)C(c2cc(-c3ccc(Cl)cc3)ccc2C)=C1O` (centres unmarked) [1-47, 3-(4′-chloro-4-methylbiphenyl-3-yl)-4-hydroxy-5-(2-methoxyethyl)-5-methyl-1,5-dihydro-2H-pyrrol-2-one], the IC50 worked out at 3.19 µM. The same measure, in the same setting: in the case of `Cc1ccc(-c2ccc(Cl)cc2)cc1-c1c(O)c2ccc(F)cc2[nH]c1=O` [9-8, 3-(4′-chloro-4-methylbiphenyl-3-yl)-7-fluoro-4-hydroxyquinolin-2(1H)-one] it was 0.174 µM.

As for `Cc1ccc(-c2ccc(F)cc2)cc1-c1c(O)c2ccc(F)cc2[nH]c1=O` [9-9, 7 fluoro-3-(4′-fluoro-4-methylbiphenyl-3-yl)-4-hydroxyquinolin-2(1H)-one], the IC50 is 2.94 µM. For the compound `Cc1ccc(-c2ccc(Cl)cc2)cc1C1=C(O)CN(CC(C)C)C1=O` [1-27, 3-(4′-chloro-4-methylbiphenyl-3-yl)-4-hydroxy-1-(2-methylpropyl)-1,5-dihydro-2H-pyrrol-2-one], the IC50 was determined as 1.94 µM. As to `Cc1ccc(-c2ccc(Cl)cc2)cc1C1C(=O)N2CCCCN2C1=O` [8-3, 2-(4′-chloro-4-methylbiphenyl-3-yl)tetrahydro-1H-pyrazolo[1,2-a]pyridazine-1,3(2H)-dione], the IC50 is 1.05 µM. Turning to `O=C1NC2(CCOCC2)C(O)=C1c1cc(-c2ccc(F)cc2)ccc1Cl` [1-41, 3-(4-chloro-4′-fluorobiphenyl-3-yl)-4-hydroxy-8-oxa-1-azaspiro[4.5]dec-3-en-2-one], the IC50 is 1.14 µM. For `Cc1ccc(-c2ccc(Cl)cc2)cc1C1C(=O)N(C)N(C)C1=O` [8-14, 4-(4′-chloro-4-methylbiphenyl-3-yl)-1,2-dimethyl-1H-pyrazole-3,5(2H,4H)-dione], the IC50 came out at 7.46 µM. Consider `Cc1ccc(-c2ccc(Cl)cc2)cc1C1C(=O)N2CC(C)(F)CN2C1=O` [8-12, 2-(4′-chloro-4-methylbiphenyl-3-yl)-6-fluoro-6-methyldihydro-1H,5H-pyrazolo[1,2-a]pyrazole-1,3(2H)-dione], for which the IC50 stood at 0.783 µM. The same measure, in the same setting: in the case of `O=C1C(c2cc(-c3ccc(F)c(Cl)c3)ccc2Cl)C(=O)N2CCCCN12` [8-4, 2-(3′,4-dichloro-4′-fluorobiphenyl-3-yl)tetrahydro-1H-pyrazolo[1,2-a]pyridazine-1,3(2H)-dione] it was 3.92 µM; in that of `CC1(F)CN2C(=O)C(c3cc(-c4ccc(Cl)cc4)ccc3Cl)C(=O)N2C1` [8-13, 2-(4,4′-dichlorobiphenyl-3-yl)-6-fluoro-6-methyldihydro-1H,5H-pyrazolo[1,2-a]pyrazole-1,3(2H)-dione], 1.36 µM; in that of `Cc1ccc(-c2ccc(Cl)c(C3=C(O)C4(CCOCC4)NC3=O)c2)cc1F` [1-39, 3-(4-chloro-3′-fluoro-4′-methylbiphenyl-3-yl)-4-hydroxy-8-oxa-1-azaspiro[4.5]dec-3-en-2-one], 1.98 µM.

Take `Cc1ccc(-c2ccc(F)c(F)c2)cc1C1=C(O)C2(CCOCC2)NC1=O` [1-37, 3-(3′,4′-difluoro-4-methylbiphenyl-3-yl)-4-hydroxy-8-oxa-1-azaspiro[4.5]dec-3-en-2-one]: the IC50 stood at 0.85 µM. Consider `Cc1ccc(-c2ccc(Cl)cc2)cc1C1C(=O)N2CCOCCN2C1=O` [8-6, 8-(4′-chloro-4-methylbiphenyl-3-yl)tetrahydro-7H-pyrazolo[1,2-d][1,4,5]oxadiazepine-7,9(8H)-dione], for which the IC50 came out at 1.28 µM.
